From patent US9259006B2, “Antimicrobial compositions and methods of use thereof” (priority 2008, dated 2016)
Like-named read-outs stand apart in the source and are kept apart here.

Key:
E. Coli (ATCC 43888) = assay type: cell-based; conditions: inoculum 6.87-log, about 33° F.
[1] = Hypochlorous acid stability and shelf life, DPD assay (Table 10, FIG. 1); assay type: physicochemical
[2] = Spinach leaf 25 grams, 180 min.

Row | Compound | Antimicrobial activity (log reduction) of single components (E. Coli (ATCC 43888); Spinach leaf 25 grams, 2 min.) [log] | Antimicrobial activity (log reduction) of single components (E. Coli (ATCC 43888); Spinach leaf 25 grams, 30 min.) [log] | Antimicrobial activity (log reduction) of single components (E. Coli (ATCC 43888); [2]) [log] | Antimicrobial activity (log reduction) of single components (E. Coli (ATCC 43888); Strawberry 25 grams, 2 min.) [log] | Antimicrobial activity (log reduction) of single components (E. Coli (ATCC 43888); Strawberry 25 grams, 30 min.) [log] | Antimicrobial activity (log reduction) of single components (E. Coli (ATCC 43888); Strawberry 25 grams, 180 min.) [log] | level of hypochlorous acid in solution ([1]; in the absence of diol at pH 7) [%] | level of hypochlorous acid in solution ([1]; in the presence of diol at pH 4, at about 4 hours) [%]
1 | BrBr [Bromine (0.08 wgt. %), Bromine] | 2.11 | 3.28 | 4.44 | 2.32 | 3.32 | 4.89 |  | 
2 | O=[O+][O-] [Ozone (0.001 wgt. %), Ozone] | 2.34 | 2.58 | 3.63 | 2.89 | 3.12 | 4.12 |  | 
3 | OCl [hypochlorous acid] |  |  |  |  |  |  | 100 | 0
4 | Octyl Phenol Ethoxylate [Octyl Phenol Ethoxylate (0.5 wgt. %)] | 1.15 | 2.47 | 3.11 | 1.05 | 2.78 | 3.9 |  | 
